US11919902B2, “Aryl-bipyridine amine derivatives as phosphatidylinositol phosphate kinase inhibitors” (HiberCell, Inc., priority 2017, dated 2024)

How the values were obtained:
[1] = molecular target: T1, PIP4K2A (full length protein, SignalChem) (Homo sapiens, UniProt P48426); assay: Kinase Assay PIP4K2 A (Sprint); ADP-Glo biochemical assay; settings: Table 2; compounds listed under IC50 range headings
T1 construct: 4 nM PIP4K2A (full length protein, SignalChem); purchased SignalChem
T1 sequence (P48426 1-406): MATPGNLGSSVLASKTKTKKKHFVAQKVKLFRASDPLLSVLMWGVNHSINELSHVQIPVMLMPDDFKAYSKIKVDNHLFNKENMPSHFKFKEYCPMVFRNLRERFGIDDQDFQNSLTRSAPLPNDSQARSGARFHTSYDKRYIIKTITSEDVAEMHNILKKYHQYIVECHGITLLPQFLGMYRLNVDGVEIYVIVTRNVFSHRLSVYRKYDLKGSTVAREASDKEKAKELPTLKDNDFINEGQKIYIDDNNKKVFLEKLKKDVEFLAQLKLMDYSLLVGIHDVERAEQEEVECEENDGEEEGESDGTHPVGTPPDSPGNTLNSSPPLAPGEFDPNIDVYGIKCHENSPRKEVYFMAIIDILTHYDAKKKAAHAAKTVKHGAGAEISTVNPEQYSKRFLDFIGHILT
Method in brief: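 ADP-Glo luminescence detected ADP after a 1 h RT reaction started with 60 μM ATP solution. Before that, full-length PIP4K2A (4 nM in mix) with 100 μM PI(5)P diC8 was pre-incubated 15 min with compounds in MOPS buffer pH 7.2, 25 mM MgCl2, 0.005% Tween 20. IC50 derived from % inhibition relative to DMSO over 10 three-fold concentrations.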

[2] = molecular target: T2, GST tagged PIP4KtypeIIB (Homo sapiens, UniProt P78356); assay: Trans-FI P kinase assay PIP4K2B (PIP4KtypeIIB inhibition assay); format: biochemical; settings: Table 4; compounds listed under IC50 range headings; 100 uM GTP, 5 nM PIP4KIIB; read-out: Trans-FI P kinase assays: PIP4K2B IC50
T2 construct: made in house; host or cells: E. coli
T2 sequence (P78356 1-416): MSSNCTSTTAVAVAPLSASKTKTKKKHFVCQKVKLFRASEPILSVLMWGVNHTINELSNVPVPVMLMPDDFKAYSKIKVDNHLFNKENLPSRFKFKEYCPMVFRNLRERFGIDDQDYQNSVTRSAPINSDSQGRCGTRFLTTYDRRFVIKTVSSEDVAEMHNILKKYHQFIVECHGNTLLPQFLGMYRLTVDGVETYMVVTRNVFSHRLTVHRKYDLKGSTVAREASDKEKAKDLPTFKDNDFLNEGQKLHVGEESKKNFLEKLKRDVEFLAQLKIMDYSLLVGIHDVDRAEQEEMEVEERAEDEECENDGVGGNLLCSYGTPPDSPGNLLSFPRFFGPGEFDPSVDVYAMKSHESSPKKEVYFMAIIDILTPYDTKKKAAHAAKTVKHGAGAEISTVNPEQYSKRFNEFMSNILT
From the text: GST tagged PIP4KtypeIIA and B enzymes were overexpressed in E. Coli and purified to >80% homogeneity. Phosphatidyl inositol-5-phosphate (PI5P, Cat. #850152, Avanti Polar Lipids Inc.) was used as the lipid substrate and phosphatidyl ethanolamine (DOPE 18:1, Cat. #850725, Avanti Polar Lipids Inc.) was used as the carrier lipid for assays. Ultrapure ATP and GTP was purchased from Bellbrooke Labs. ADP Glo reagents were obtained from Promega. Transcreener FI reagent was obtained from Bellbrooke labs.
1. HEPES buffer mix: 200 mM HEPES pH 7.4, 50 mM MgCl2, 0.05% v/v triton×100
2. HNE buffer: 20 mM HEPES, pH 7.4, 100 mM NaCl, 0.5 mM EGTA
3. H:E buffer: 30 mM HEPES, pH 7.4, 1 mM EGTA
GST-tagged PIP4KtypeIIB (3.4 uL, 2.77 mg/mL) was diluted to 5 mL using HNE buffer to yield 5× enzyme stock (25 nM)
Lipid Preparation: In a 10 mL pyrex glass vial, lug of PI5P and lug of DOPE were suspended in 2.5 mL of HEPES buffer mix and 2.5 mL of H:E buffer. The contents were mixed and sonicated for 3 min to yield a translucent lipid stock.
Compound Preparation: Compounds were stored as 5 mM stocks in neat DMSO as room temperature in glass vials. 5 mM stocks were diluted to 2 mM and then serially diluted (3×) in neat DMSO in 96 well polypropylene plates. From the serially diluted stocks, 3 uL was delivered into 250 uL of 25% DMSO (in water) to generate 5× compound stocks. Typically, the highest compound conc. was 24 uM.
The assay volume was kept at 25 uL. To each well of the reaction plate, 10 uL of lipid stock (1:1 ratio PI5P:DOPE) was delivered. This was followed by the addition of 5 uL of compound in 25% DMSO. Then, to each well, 5 uL of 25 nM (5×) typeIIB enzyme was delivered. The contents were mixed well and incubated for 1 h at 27 C. After 1 h, reaction was initiated by adding 5 uL of 500 uM GTP and the contents were mixed well with a multi-channel pipetteman. The final concentration of the reagents are as follows: 50 mM HEPES, pH 7.3, 10 mM MgCl2, 20 mM NaCl, 0.01% v/v triton-X100, 5% DMSO, 100 uM GTP, 80 uM (2 ug) PI5P, 2 ug DOPE, and 5 nM PIP4KIIB Typically, the highest conc. of compounds was 4.8 uM and the lowest conc. was 0.
After 2 h, the reaction was quenched by adding 25 uL of transcreener FI reagent. The contents were incubated at RT for 1 h and the Fluorescence (Ex: 584 Em: 623) was read using Molecular Devices Paradigm plate reader. […] The blanks were averaged and subtracted from all other wells. Using a calibration curve, RFU was converted to uM GDP (product). IC50 was calculated by plotting the residual activity (expressed as % No inhibitor control) vs. log [Inh. conc.] Table 2 represents PI5P4K activity of compounds (Example No.) of the invention arranged in accordance with the inhibition of PIP4K2 A kinase assay.

SMILES	IC50 [1]	IC50 [2]
CC(C)c1cncc(-c2ccc(-c3cncc(-c4ccnc5c4cc4n5CCN(C)C4=O)c3)cc2)c1 [Example 380, 4-(5-(4-(5-isopropylpyridin-3-yl)phenyl)pyridin-3-yl)-7-methyl-8,9-dihydropyrido[3′,2′:4,5]pyrrolo[1,2-a]pyrazin-6(7H)-one]	1000 to 2500 nM	2500 to 5000 nM
CC(C)Cn1cnnc1-c1ccc(-c2cncc(-c3ccnc4c3cc3n4CCN(c4ccccn4)C3=O)c2)cc1 [Example 367, 4-(5-(4-(4-isobutyl-4H-1,2,4-triazol-3-yl)phenyl)pyridin-3-yl)-7-(pyridin-2-yl)-8,9-dihydropyrido[3′,2′:4,5]pyrrolo[1,2-a]pyrazin-6(7H)-one]	2500 to 5000 nM	1 to 10 nM
O=C(NCc1nc2ccccc2[nH]1)c1cc2c(-c3cncc(-c4ccc(N5CCCC5=O)cc4)c3)ccnc2[nH]1 [Example 322, N-((1H-benzo[d]imidazol-2-yl)methyl)-4-(5-(4-(2-oxopyrrolidin-1-yl)phenyl)pyridin-3-yl)-1H-pyrrolo[2,3-b]pyridine-2-carboxamide]	1000 to 2500 nM	10 to 100 nM
Cc1ccc2nc(CNC(=O)c3cc4c(-c5cncc(-c6ccc(N7CCCC7=O)cc6)c5)ccnc4[nH]3)[nH]c2c1 [Example 320, N-((6-methyl-1H-benzo[d]imidazol-2-yl)methyl)-4-(5-(4-(2-oxopyrrolidin-1-yl)phenyl)pyridin-3-yl)-1H-pyrrolo[2,3-b]pyridine-2-carboxamide]	1000 to 2500 nM	100 to 1000 nM
O=C1CCCN1c1ccc(-c2cncc(-c3ccnc4c3cc3n4CCN(c4ccc5c(n4)OCCO5)C3=O)c2)cc1 [Example 308, 7-(2,3-dihydro-[1,4]dioxino[2,3-b]pyridin-6-yl)-4-(5-(4-(2-oxopyrrolidin-1-yl)phenyl)pyridin-3-yl)-8,9-dihydropyrido[3′,2′:4,5]pyrrolo[1,2-a]pyrazin-6(7H)-one]	100 to 1000 nM	1 to 10 nM
Cc1cc(-c2cncc(-c3ccc(N4CCCC4=O)cc3)c2)n2cnnc2n1 [Example 336, 1-(4-(5-(7-methyl-[1,2,4]triazolo[4,3-a]pyrimidin-5-yl)pyridin-3-yl)phenyl)pyrrolidin-2-one]	< 5000 nM	> 5000 nM
CC(C)Cn1cnnc1-c1ccc(-c2cc(-c3ccnc4c3cc3n4CCN(CC4CC4)C3=O)cnc2N)cc1 [Example 391, 4-(6-amino-5-(4-(4-isobutyl-4H-1,2,4-triazol-3-yl)phenyl)pyridin-3-yl)-7-(cyclopropylmethyl)-8,9-dihydropyrido[3′,2′:4,5]pyrrolo[1,2-a]pyrazin-6(7H)-one]	1000 to 2500 nM	10 to 100 nM
CN1CCn2c(cc3c(-c4cncc(-c5ccc(C(=O)N6CCC(C)(C)CC6)cc5)c4)ccnc32)C1=O [Example 335, 4-(5-(4-(4,4-dimethylpiperidine-1-carbonyl)phenyl)pyridin-3-yl)-7-methyl-8,9-dihydropyrido[3′,2′:4,5]pyrrolo[1,2-a]pyrazin-6(7H)-one]	100 to 1000 nM	100 to 1000 nM
CN1CCn2c(cc3c(-c4cncc(-c5ccc(N6CCC(C)(C)CC6=O)cc5)c4)ccnc32)C1=O [Example 342, 4-(5-(4-(4,4-dimethyl-2-oxopiperidin-1-yl)phenyl)pyridin-3-yl)-7-methyl-8,9-dihydropyrido[3′,2′:4,5]pyrrolo[1,2-a]pyrazin-6(7H)-one]	1000 to 2500 nM	100 to 1000 nM
CC(C)n1cnnc1-c1ccc(-c2cncc(-c3ccnc4[nH]c(C(=O)NCCCCCCCCNC(=O)COc5cccc6c5C(=O)N(C5CCC(=O)NC5=O)C6=O)cc34)c2)cc1 (centres unmarked) [Example 388, N-(8-(2-((2-(2,6-dioxopiperidin-3-yl)-1,3-dioxoisoindolin-4-yl)oxy)acetamido)octyl)-4-(5-(4-(4-isopropyl-4H-1,2,4-triazol-3-yl)phenyl)pyridin-3-yl)-1H-pyrrolo[2,3-b]pyridine-2-carboxamide]	100 to 1000 nM	100 to 1000 nM
CC(=O)Nc1ccc(-c2cn(C)c3ncc(-c4cncc(-c5ccc(N6CCCC6=O)cc5)c4)cc23)cn1 [Example 343, N-(5-(1-methyl-5-(5-(4-(2-oxopyrrolidin-1-yl)phenyl)pyridin-3-yl)-1H-pyrrolo[2,3-b]pyridin-3-yl)pyridin-2-yl)acetamide]	5 to 100 nM	100 to 1000 nM
CN1CCn2c(cc3c(-c4cncc(-c5ccc(C(=O)N6CCC7(CC7)C6)cc5)c4)ccnc32)C1=O [Example 230, 4-(5-(4-(5-azaspiro[2.4]heptane-5-carbonyl)phenyl)pyridin-3-yl)-7-methyl-8,9-dihydropyrido[3′,2′:4,5]pyrrolo[1,2-a]pyrazin-6(7H)-one]	100 to 1000 nM	100 to 1000 nM
CC(C)c1cnoc1-c1ccc(-c2cncc(-c3ccnc4c3cc3n4CCN(C)C3=O)c2)cc1 [Example 363, 4-(5-(4-(4-isopropylisoxazol-5-yl)phenyl)pyridin-3-yl)-7-methyl-8,9-dihydropyrido[3′,2′:4,5]pyrrolo[1,2-a]pyrazin-6(7H)-one]	100 to 1000 nM	10 to 100 nM
CC(C)Cn1cnnc1-c1ccc(-c2cncc(-c3ccnc4c3cc3n4CCN(C)C3=O)c2)cc1 [Example 383, 4-(5-(4-(4-isobutyl-4H-1,2,4-triazol-3-yl)phenyl)pyridin-3-yl)-7-methyl-8,9-dihydropyrido[3′,2′:4,5]pyrrolo[1,2-a]pyrazin-6(7H)-one]	100 to 1000 nM	10 to 100 nM
CC(C)Cn1cnnc1-c1ccc(-c2cncc(-c3ccnc4[nH]c(C(=O)NCc5ccccc5)cc34)c2)cc1 [Example 372, N-benzyl-4-(5-(4-(4-isobutyl-4H-1,2,4-triazol-3-yl)phenyl)pyridin-3-yl)-1H-pyrrolo[2,3-b]pyridine-2-carboxamide]	1000 to 2500 nM	10 to 100 nM
O=C1CCCN1c1ccc(-c2cncc(-c3cnc4ncc(-c5cccnc5)n4c3)c2)cc1 [Example 344, 1-(4-(5-(3-(pyridin-3-yl)imidazo[1,2-a]pyrimidin-6-yl)pyridin-3-yl)phenyl)pyrrolidin-2-one]	2500 to 5000 nM	> 5000 nM
